Patent US20250228784A1, “ANTIFIBROTIC COMPOSITION” (Sunshine Lake Pharma Co., Ltd., priority 2021, published 2025)

Test: Initial research on stability of the active compound on long-term storage
Type: physicochemical
Settings: active compound alone, not formulated

stability on long-term storage: good stability
Structure (SMILES): CCCCCCN(CCCCCC)c1ccc(-n2c(C)nc(C)cc2=O)cc1F [compound having formula (I), 3-(4-(dihexylamino)-3-fluorophenyl)-2,6-dimethylpyrimidin-4(3H)-one]
